Test results: patent publication US20240408216A1, “PROTEIN INHIBITOR OR DEGRADING AGENT, PHARMACEUTICAL COMPOSITION CONTAINING SAME AND PHARMACEUTICAL USE” (JING MEDICINE TECHNOLOGY (SHANGHAI) LTD., priority 2021, published 2024)
Where two headings read alike, the source gives them in different places.

Legend:
[1] = system: BaF3 (EGFR Del19/T790M/C797S); experiment: Cell proliferation IC50 assay (Cell Titer GLO), BaF3 DTC cells; format: cell-based; conditions: Mus musculus, Ba/F3 EGFR-Del19/T790M/C797S
How it was run: (§1)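 Each cell line, plated at 2000-4000 cells/well, received serially diluted compound for 72 h (37° C, 5% CO2) before luminescent ATP-based viability detection. IC50 values were derived from growth inhibition relative to DMSO-treated and cell-free blank wells.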

[2] = system: BaF3 (EGFR L858R/T790M/C797S); experiment: Cell proliferation IC50 assay (Cell Titer GLO), BaF3 LTC cells; format: cell-based; conditions: Mus musculus, Ba/F3 EGFR
How it was run: as §1

[3] = target: T1, BaF3 (EGFR Del19/C797S) (Homo sapiens, UniProt P00533, C797S, cells depend on it, form not given); experiment: Cell proliferation IC50 assay (Cell Titer GLO), BaF3 DC cells; format: cell-based, mouse; conditions: Table 7, 72 h
T1 construct: BaF3 (EGFR Del19/C797S)|DC|RPMI1640 + 10% FBS
How it was run: as §1

[4] = target: BaF3 (EGFR L858R/C797S) (Homo sapiens, UniProt P00533, C797S/L858R, cells depend on it); experiment: Cell proliferation IC50 assay (Cell Titer GLO), BaF3 LC cells; format: cell-based, mouse; conditions: Table 7, 72 h
BaF3 (EGFR L858R/C797S), sequence (P00533 whole entry C797S/L858R): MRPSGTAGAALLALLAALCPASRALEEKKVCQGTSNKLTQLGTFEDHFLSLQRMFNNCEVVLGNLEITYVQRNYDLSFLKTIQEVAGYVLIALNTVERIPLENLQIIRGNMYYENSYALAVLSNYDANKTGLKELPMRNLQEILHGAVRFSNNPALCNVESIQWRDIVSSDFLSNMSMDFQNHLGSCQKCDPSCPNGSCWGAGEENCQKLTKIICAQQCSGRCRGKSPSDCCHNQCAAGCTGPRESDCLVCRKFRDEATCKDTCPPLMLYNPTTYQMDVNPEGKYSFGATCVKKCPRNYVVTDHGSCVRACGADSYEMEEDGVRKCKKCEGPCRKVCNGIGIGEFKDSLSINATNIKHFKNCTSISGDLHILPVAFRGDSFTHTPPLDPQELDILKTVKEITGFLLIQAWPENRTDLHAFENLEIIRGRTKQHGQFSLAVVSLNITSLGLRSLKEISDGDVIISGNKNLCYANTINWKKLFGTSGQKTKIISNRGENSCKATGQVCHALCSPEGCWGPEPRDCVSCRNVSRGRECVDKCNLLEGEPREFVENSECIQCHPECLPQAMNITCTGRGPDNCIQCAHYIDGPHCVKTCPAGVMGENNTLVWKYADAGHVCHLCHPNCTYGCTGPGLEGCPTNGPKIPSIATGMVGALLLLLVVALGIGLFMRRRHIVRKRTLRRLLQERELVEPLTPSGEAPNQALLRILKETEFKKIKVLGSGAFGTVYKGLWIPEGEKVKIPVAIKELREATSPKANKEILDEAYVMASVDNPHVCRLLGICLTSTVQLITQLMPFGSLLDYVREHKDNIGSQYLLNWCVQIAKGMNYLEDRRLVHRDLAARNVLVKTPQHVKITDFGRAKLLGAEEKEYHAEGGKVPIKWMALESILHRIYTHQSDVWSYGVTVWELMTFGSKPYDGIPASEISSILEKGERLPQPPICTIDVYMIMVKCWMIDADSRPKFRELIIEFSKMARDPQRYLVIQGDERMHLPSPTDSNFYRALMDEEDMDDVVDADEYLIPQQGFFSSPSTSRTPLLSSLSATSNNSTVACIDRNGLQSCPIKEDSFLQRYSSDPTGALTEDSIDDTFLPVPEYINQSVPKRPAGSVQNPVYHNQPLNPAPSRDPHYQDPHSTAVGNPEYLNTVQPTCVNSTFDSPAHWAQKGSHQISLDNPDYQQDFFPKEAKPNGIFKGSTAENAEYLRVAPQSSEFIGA
Description: (§2) IC50 of compounds in the present invention was determined by Cell Titer GLO reagent from Promega. The procedures are as follows:
(§3) Tumor cells were cultured in specified medium in an incubator at 37° C. and 5% CO2. The cells were passaged periodically. Cells at the logarithmic growth phase were collected for plating at a density of 2000-4000 cells/well. The next day, the compounds of the present invention were serially diluted and added to the cells, with DMSO being the negative control and the culture media without cells being the blank control. The plate was incubated in the incubator for 72 h. The cell viability assay was performed by adding the detection reagents to the cell culture media according to Cell Titer GLO reagent instructions and detecting luminescent signals on an EnVision microplate reader (PerkinElmer).
(§4) Inhibition of cell growth by the compounds of the present invention was plotted by Prism Graphpad software for statistically calculating the IC50 of the compound of the present invention.

[5] = target: BaF3 (EGFR Del19) (Homo sapiens, UniProt P00533, cells depend on it, form not given); experiment: Cell proliferation IC50 assay (Cell Titer GLO), BaF3 D cells; format: cell-based, mouse; conditions: Table 7, 72 h
BaF3 (EGFR Del19), sequence (P00533 with tags, fused parts or gaps DEL746-750): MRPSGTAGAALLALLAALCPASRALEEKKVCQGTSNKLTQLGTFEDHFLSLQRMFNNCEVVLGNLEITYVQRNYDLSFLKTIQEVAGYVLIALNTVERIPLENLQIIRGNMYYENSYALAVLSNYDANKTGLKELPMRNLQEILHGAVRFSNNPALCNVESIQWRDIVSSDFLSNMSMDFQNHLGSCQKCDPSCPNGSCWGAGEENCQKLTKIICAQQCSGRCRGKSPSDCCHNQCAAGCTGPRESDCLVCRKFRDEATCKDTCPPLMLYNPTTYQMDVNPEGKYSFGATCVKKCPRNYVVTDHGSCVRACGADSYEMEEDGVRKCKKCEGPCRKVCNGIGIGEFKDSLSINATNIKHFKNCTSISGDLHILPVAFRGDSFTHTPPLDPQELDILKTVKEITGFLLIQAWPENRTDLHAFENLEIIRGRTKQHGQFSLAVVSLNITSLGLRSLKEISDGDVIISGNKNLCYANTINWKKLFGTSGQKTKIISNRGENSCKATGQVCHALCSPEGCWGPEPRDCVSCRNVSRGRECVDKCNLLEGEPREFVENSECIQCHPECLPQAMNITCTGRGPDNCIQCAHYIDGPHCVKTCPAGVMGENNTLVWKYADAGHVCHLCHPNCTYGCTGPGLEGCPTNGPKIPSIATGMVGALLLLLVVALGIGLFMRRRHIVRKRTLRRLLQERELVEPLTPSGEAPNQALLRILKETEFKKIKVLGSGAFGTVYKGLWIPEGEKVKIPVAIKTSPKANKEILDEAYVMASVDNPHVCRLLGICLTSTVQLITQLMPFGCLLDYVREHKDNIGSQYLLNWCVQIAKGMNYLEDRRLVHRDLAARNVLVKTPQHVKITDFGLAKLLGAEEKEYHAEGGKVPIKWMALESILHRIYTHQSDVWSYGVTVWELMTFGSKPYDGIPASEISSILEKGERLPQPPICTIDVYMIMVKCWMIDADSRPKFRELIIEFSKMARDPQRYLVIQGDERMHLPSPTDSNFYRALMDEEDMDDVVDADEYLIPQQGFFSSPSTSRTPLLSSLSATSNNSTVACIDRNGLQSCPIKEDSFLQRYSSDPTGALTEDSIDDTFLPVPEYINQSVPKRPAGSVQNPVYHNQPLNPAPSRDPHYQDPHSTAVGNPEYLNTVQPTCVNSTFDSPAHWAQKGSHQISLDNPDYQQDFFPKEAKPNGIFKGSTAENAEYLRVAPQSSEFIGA
Description: as §2, §3, §4

[6] = target: BaF3 (EGFR L858R) (Homo sapiens, UniProt P00533, L858R, cells depend on it); experiment: Cell proliferation IC50 assay (Cell Titer GLO), BaF3 L cells; format: cell-based, mouse; conditions: Table 7, 72 h
BaF3 (EGFR L858R), sequence (P00533 whole entry L858R): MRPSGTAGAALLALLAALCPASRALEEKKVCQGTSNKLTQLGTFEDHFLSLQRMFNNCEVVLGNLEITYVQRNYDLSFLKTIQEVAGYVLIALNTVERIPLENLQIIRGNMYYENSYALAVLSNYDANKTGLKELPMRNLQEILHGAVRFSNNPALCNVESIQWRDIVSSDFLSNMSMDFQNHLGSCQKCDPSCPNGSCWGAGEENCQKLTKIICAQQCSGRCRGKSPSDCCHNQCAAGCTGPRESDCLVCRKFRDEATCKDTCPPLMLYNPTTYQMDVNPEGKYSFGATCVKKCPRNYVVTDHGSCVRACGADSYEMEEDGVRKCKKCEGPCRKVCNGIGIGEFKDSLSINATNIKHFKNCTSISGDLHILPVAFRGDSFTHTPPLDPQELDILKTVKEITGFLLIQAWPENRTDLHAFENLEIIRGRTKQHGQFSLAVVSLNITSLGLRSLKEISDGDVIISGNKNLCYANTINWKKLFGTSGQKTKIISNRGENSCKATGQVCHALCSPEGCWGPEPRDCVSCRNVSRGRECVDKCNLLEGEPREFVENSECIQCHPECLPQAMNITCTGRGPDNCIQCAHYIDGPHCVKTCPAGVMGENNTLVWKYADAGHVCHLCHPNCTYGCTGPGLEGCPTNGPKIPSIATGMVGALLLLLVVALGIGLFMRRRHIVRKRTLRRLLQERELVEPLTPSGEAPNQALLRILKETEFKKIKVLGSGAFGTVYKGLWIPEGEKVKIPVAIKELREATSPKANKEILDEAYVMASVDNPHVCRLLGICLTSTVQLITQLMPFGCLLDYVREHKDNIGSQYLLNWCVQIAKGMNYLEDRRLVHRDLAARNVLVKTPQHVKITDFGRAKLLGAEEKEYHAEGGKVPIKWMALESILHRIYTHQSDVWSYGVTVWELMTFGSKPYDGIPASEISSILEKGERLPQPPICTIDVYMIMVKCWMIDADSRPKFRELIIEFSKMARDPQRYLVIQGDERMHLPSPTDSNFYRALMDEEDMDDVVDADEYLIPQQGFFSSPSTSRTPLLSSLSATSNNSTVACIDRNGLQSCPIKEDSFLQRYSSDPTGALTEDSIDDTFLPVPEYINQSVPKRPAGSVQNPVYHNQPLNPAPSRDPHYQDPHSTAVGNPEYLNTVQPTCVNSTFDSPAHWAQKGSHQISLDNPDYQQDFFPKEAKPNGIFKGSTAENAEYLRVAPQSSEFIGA
Description: as §2, §3, §4

[7] = system: DT; experiment: Cell proliferation IC50 assay (Cell Titer GLO), DT cells; format: cell-based; conditions: Mus musculus; Table 7; DT cells (BaF3 with EGFR mutant), 72 h
Description: as §2, §3, §4

[8] = system: LT; experiment: Cell proliferation IC50 assay (Cell Titer GLO), LT cells; format: cell-based; conditions: Mus musculus; Table 7; LT cells (BaF3 with EGFR mutant), 72 h
Description: as §2, §3, §4

[9] = system: BaF3 (EGFR WT); experiment: Cell proliferation IC50 assay (Cell Titer GLO), BaF3 WT cells; format: cell-based; conditions: Mus musculus, Ba/F3 EGFR, 72 h
How it was run: as §1

[10] = system: BaF3 patent; experiment: Cell proliferation IC50 assay (Cell Titer GLO), BaF3 parental cells; format: cell-based; conditions: Mus musculus, Table 5, 10 ng/ml mIL3, 72 h
How it was run: as §1

[11] = system: A431; experiment: Cell proliferation IC50 assay (Cell Titer GLO), A431 cells; format: cell-based; conditions: Homo sapiens, A-431, A431, 72 h, read-out: A431 IC50
How it was run: as §1

[12] = system: human EGFR-DTC; experiment: EGFR protein abundance assay (Western blotting), EGFR-DTC; format: cell-based; conditions: Ba/F3 cells expressing human EGFR-DTC, 24 h, Western blot
Description: (§5) Mouse Ba/F3 cells stably expressing human EGFR-DTC, EGFR-LTC, or EGFR-DC were transferred to Petri dishes with RPMI-1640 medium (Gibco, Product No. 11875093) containing 10% fetal bovine serum (FBS, Biological Industries, Product No. 04-001-1A) and 0.1% penicillin/streptomycin (P/S) and incubated in an aseptic incubator at 37° C., 95% relative humidity, and 5% CO2. Cells at the logarithmic growth phase were taken and seeded at a density of 50000 cells/well in 12-well plates (Corning, Product No. 3513) containing 1 mL of medium per well. After 24 h, the compounds disclosed herein with different concentrations were added to the wells at a final DMSO concentration of 0.1%. After 24 h, cells were lysed in SDS lysis buffer (1.45 g of SDS, 0.2 g of Tris base, 6 mL of glycerol, 20 mg of bromophenol blue, 310 mg DTT; brought to 40 mL with d2H2O), and the EGFR levels were detected and analyzed by Western Blotting (immunoblotting) using standard molecular biological techniques. Cell lysates were boiled at 95° C. for 8 min, mixed and centrifuged. The total cell proteins in the lysates were subjected to SDS-PAGE (GenScript, Product No. M00654), transferred to NC membranes (GE, Product No. 1060002) by blotting, incubated in a blocking buffer (TAKARA, Product No. T7131A) at room temperature for 60 min, and co-incubated overnight at 4° C. with the following primary antibodies: anti-EGFR (#4267S, 1:1000), anti-phoso-EGFR (#3777S, 1:1000), anti-GAPDH (#5174S, 1:10000), anti-Actin (#5125 S, 1:10000) (all purchased from Cell Signaling Technology). The samples were washed three times with TBST at room temperature, each for 10 min, and then incubated for 60 minutes in a blocking buffer containing a secondary antibody (#7074S, 1:10000, purchased from Cell Signaling Technology) at room temperature. The samples were washed three times with TBST at room temperature, each for 10 min. Chemiluminescent substrates were added, and an Azure c300 system was used for imaging.

[13] = target: T2, human EGFR-LTC (Homo sapiens, UniProt P00533, C797S/L858R/T790M); experiment: EGFR protein abundance assay (Western blotting), EGFR-LTC; format: cell-based; conditions: 24 h, Western blot; for DC50: Ba/F3 cells expressing human EGFR-LTC; for Dmax: BaF3, Ba/F3 cells expressing human EGFR-LTC
T2 construct: expressed in transfected cells
T2 sequence (P00533 25-1210 T790M/C797S/L858R): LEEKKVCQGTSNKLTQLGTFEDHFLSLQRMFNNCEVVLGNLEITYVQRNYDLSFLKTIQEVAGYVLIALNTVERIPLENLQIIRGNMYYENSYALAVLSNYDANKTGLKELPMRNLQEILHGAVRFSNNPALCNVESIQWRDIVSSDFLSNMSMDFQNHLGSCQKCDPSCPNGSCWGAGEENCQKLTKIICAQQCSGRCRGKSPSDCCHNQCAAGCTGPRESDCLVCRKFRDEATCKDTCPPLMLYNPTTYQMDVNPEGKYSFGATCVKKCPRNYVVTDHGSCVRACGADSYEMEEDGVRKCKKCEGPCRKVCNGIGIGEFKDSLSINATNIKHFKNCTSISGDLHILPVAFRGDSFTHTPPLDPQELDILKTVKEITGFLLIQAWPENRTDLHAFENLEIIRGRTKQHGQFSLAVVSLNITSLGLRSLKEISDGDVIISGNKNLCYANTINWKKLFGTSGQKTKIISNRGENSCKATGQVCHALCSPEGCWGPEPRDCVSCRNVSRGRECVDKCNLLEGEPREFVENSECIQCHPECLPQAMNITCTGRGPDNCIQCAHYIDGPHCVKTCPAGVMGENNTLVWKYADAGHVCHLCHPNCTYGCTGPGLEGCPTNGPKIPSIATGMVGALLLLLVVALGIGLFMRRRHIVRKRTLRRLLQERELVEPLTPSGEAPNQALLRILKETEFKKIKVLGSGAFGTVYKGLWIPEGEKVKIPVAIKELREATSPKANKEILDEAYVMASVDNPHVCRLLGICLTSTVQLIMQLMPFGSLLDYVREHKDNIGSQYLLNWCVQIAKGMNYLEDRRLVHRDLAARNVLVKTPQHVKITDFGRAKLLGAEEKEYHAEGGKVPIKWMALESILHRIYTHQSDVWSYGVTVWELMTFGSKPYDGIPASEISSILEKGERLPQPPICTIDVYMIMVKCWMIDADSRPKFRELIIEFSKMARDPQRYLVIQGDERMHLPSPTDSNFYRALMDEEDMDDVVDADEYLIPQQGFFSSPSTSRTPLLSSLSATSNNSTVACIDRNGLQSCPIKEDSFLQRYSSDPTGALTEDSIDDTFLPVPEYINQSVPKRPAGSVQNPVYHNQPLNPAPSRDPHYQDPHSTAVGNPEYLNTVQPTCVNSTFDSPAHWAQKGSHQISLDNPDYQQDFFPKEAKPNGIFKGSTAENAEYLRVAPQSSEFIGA
Description: as §5

[14] = system: human EGFR-DC; experiment: EGFR protein abundance assay (Western blotting), EGFR-DC; format: cell-based; conditions: Ba/F3 cells expressing human EGFR-DC, 24 h, Western blot
Description: as §5

SMILES	IC50 [3] [nM]	GI50 [4] [nM]	GI50 [5] [nM]	GI50 [6] [nM]	IC50 [7] [nM]	IC50 [8] [nM]	DC50 [12] [nM]	EGFR-DTC Dmax [12] [%]	DC50 [13] [nM]	Dmax [13] [%]	DC50 [14] [nM]	EGFR-DC Dmax [14] [%]	IC50 ([1]; Table 6, 72 h) [nM]	IC50 ([2]; Table 6, 72 h) [nM]	IC50 ([9]; Table 6, 10 ng/ml EGF) [nM]	IC50 ([11]; Table 6) [nM]	further results
CCc1cc(Nc2ncc(Cl)c(Nc3ccccc3P(C)(C)=O)n2)c(OC)cc1N1CCC(N2CCN(CCC#Cc3cccc4c3CN(C3CCC(=O)NC3=O)C4=O)CC2)CC1 (single isomer, unassigned) [Example E4]	4.8	23	2.1	6.7	5.5	7.4	2.27	96	6.26	91	18.6	75					IC50 ([1]; Table 5, 72 h): 6.6 nM; IC50 ([2]; Table 5, 72 h): 37.6 nM; IC50 ([9]; Table 5, 10 ng/ml EGF): > 4000 nM; IC50 [10]: > 4 µM; IC50 ([11]; Table 5): 2060 nM
CCc1cc(Nc2ncc(Cl)c(Nc3ccccc3P(C)(C)=O)n2)c(OC)cc1N1CCC(N2CCN(CCOc3cccc4c3CN(C3CCC(=O)NC3=O)C4=O)CC2)CC1 (centres unmarked) [Example E95]	1.3	16.9	0.8	6.6	4	3.5	3.02	91	2.13	94	10.1	98	5.37	48.4	≥ 1820	1730	
CCc1cc(Nc2ncc(Cl)c(Nc3ccccc3P(C)(C)=O)n2)c(OC)cc1N1CCC(N2Cc3ccc(Oc4cccc5c4CN(C4CCC(=O)NC4=O)C5=O)cc3C2)CC1 (centres unmarked) [Example E120]	3.2	33.9	1.8	16.6	7.8	9.3	7.17	86	13.1	85			14.7	115	≥ 2160	≥ 1560	
